# US12534450B2, “Methods and compositions for targeting PD-L1” (Aligos Therapeutics, Inc., priority 2021, dated 2026)
# Target: PD-1/PD-L1 PPI (Homo sapiens, UniProt Q9NZQ7)
# Assay: PDL1/PD1 Binding Assay
# Settings: PDL1-6×His 0.3 nM, PD1-Fc-Avi-Biotin 2.5 nM, Acceptor/Donor beads, Envision reader
# Protocol: Compounds to be tested were serially diluted in DMSO, and further diluted in assay buffer (25 mM Hepes pH 7.4, 150 mM NaCl, 0.005% Tween 20, BSA 0.01%). Diluted compounds were added to the wells with final concentration of DMSO at 1%. PDL1-6×His protein was added to the wells, mixed well with compound. The plates were incubated for 30 min at room temperature. PD1-Fc-Avi-Biotin protein was added to the wells. Final concentration of PDL1 and PD1 protein is 0.3 nM and 2.5 nM, respectively. After a binding time of 30 min at room temperature, Anti-6×His Acceptor beads (final concentration 20 ug/ml) were added to the wells, and the incubation continued for 1 h. Streptavidin Donor beads (final concentration 20 ug/mL) were added at reduced light. The plates were sealed with foil and incubated in the dark for additional 1 h or overnight before reading on an Envision reader. The IC50 values were determined by fitting the curves using a four-parameter equation in Graphpad Prism 8.
# Chain of PD-1/PD-L1 PPI (Q9NZQ7 19-238 limits assumed): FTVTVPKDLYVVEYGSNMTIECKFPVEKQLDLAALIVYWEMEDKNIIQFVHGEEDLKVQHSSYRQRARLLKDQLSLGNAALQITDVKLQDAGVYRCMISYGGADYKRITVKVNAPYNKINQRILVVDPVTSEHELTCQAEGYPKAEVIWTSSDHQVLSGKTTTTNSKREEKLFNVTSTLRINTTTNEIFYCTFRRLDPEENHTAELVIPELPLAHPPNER
row,IC50 [nM],SMILES
1,≤ 10,"COc1nc(-c2cccc(-c3cccc(NC(=O)c4cn(C)c(=O)n(C)c4=O)c3Cl)c2Cl)cc2c1[C@@H](NC[C@@H]1CCC(=O)N1)CC2 (single isomer, unassigned) [Compound A-1]"
2,≤ 10,"COc1nc(-c2cccc(-c3cccc(NC(=O)c4cn(C)c(=O)n(C)c4=O)c3C)c2Cl)cc2c1[C@@H](NC[C@@H]1CCC(=O)N1)CO2 (single isomer, unassigned) [Compound A-19]"
3,≤ 10,"COc1nc(-c2cccc(-c3cccc(NC(=O)c4cn(C)c(=O)n(C)c4=O)c3Cl)c2Cl)cc2c1[C@@H](N1CC3(CCC(=O)N3)C1)CC2 (single isomer, unassigned) [Compound A-20]"
4,≤ 10,"COc1nc(-c2cccc(-c3cccc(NC(=O)c4cn(C)c(=O)n(C)c4=O)c3Cl)c2Cl)cc2c1[C@@H](N1CC3(CCNC3=O)C1)CC2 (single isomer, unassigned) [Compound A-21]"
5,≤ 10,"COc1nc(-c2cccc(-c3cccc(NC(=O)c4cn(C)c(=O)n(C)c4=O)c3Cl)c2Cl)cc2c1[C@H](N1CC3(CCNC3=O)C1)CC2 (single isomer, unassigned) [Compound A-22]"
6,≤ 10,"COc1nc(-c2cccc(-c3cccc(NC(=O)c4cn(C)c(=O)n(C)c4=O)c3Cl)c2Cl)cc2c1[C@H](N1CC3(CN(C(C)=O)C3)C1)CC2 (single isomer, unassigned) [Compound A-23]"
7,≤ 10,"COc1nc(-c2cccc(-c3cccc(NC(=O)c4cn(C)c(=O)n(C)c4=O)c3Cl)c2Cl)cc2c1[C@@H](N1CC(OC)C1)CC2 (single isomer, unassigned) [Compound A-24]"
8,≤ 10,"COc1nc(-c2cccc(-c3cccc(NC(=O)c4cn(C)c(=O)n(C)c4=O)c3Cl)c2Cl)cc2c1[C@@H](N1CC(O)C1)CC2 (single isomer, unassigned) [Compound A-26]"
9,≤ 10,"COc1nc(-c2cccc(-c3cccc(NC(=O)c4cn(C)c(=O)n(C)c4=O)c3Cl)c2F)cc2c1[C@H](N[C@@H]1CCOC[C@@H]1O)CC2 (single isomer, unassigned) [Compound A-32]"
10,≤ 10,"COc1nc(-c2cccc(-c3cccc(NC(=O)c4cn(C)c(=O)n(C)c4=O)c3C)c2C)cc2c1[C@H](N[C@@H]1CCOC[C@@H]1O)CC2 (single isomer, unassigned) [Compound A-34]"
11,≤ 10,"COc1nc(-c2cccc(-c3cccc(NC(=O)c4cn(C)c(=O)n(C)c4=O)c3C)c2F)cc2c1[C@H](N[C@@H]1CCOC[C@@H]1O)CC2 (single isomer, unassigned) [Compound A-35]"
12,≤ 10,"COc1nc(-c2cccc(-c3cccc(NC(=O)c4cn(C)c(=O)n(C)c4=O)c3F)c2Cl)cc2c1[C@H](N[C@@H]1CCOC[C@@H]1O)CC2 (single isomer, unassigned) [Compound A-36]"
13,≤ 10,"COc1nc(-c2cccc(-c3cccc(NC(=O)c4cn(C)c(=O)n(C)c4=O)c3F)c2C)cc2c1[C@H](N[C@@H]1CCOC[C@@H]1O)CC2 (single isomer, unassigned) [Compound A-37]"
14,≤ 10,"COc1nc(-c2cccc(-c3cccc(NC(=O)c4cn(C)c(=O)n(C)c4=O)c3F)c2F)cc2c1[C@H](N[C@@H]1CCOC[C@@H]1O)CC2 (single isomer, unassigned) [Compound A-38]"
15,≤ 10,COc1nc(-c2cccc(-c3cccc(NC(=O)c4cn(C)c(=O)n(C)c4=O)c3C)c2Cl)cc2c1[C@H](NC[C@@H]1CCC(=O)N1)CC2 [Compound A-10]
16,≤ 10,COc1nc(-c2cccc(-c3cccc(NC(=O)c4cn(C)c(=O)n(C)c4=O)c3F)c2Cl)cc2c1[C@H](NC[C@@H]1CCC(=O)N1)CC2 [Compound A-11]
17,≤ 10,COc1nc(-c2cccc(-c3cccc(NC(=O)c4cn(C)c(=O)n(C)c4=O)c3Cl)c2C)cc2c1[C@H](NC[C@@H]1CCC(=O)N1)CC2 [Compound A-12]
18,≤ 10,COc1nc(-c2cccc(-c3cccc(NC(=O)c4cn(C)c(=O)n(C)c4=O)c3C)c2C)cc2c1[C@H](NC[C@@H]1CCC(=O)N1)CC2 [Compound A-13]
19,≤ 10,COc1nc(-c2cccc(-c3cccc(NC(=O)c4cn(C)c(=O)n(C)c4=O)c3F)c2C)cc2c1[C@H](NC[C@@H]1CCC(=O)N1)CC2 [Compound A-14]
20,≤ 10,COc1nc(-c2cccc(-c3cccc(NC(=O)c4cn(C)c(=O)n(C)c4=O)c3Cl)c2F)cc2c1[C@H](NC[C@@H]1CCC(=O)N1)CC2 [Compound A-15]
21,≤ 10,COc1nc(-c2cccc(-c3cccc(NC(=O)c4cn(C)c(=O)n(C)c4=O)c3C)c2F)cc2c1[C@H](NC[C@@H]1CCC(=O)N1)CC2 [Compound A-16]
22,≤ 10,COc1nc(-c2cccc(-c3cccc(NC(=O)c4cn(C)c(=O)n(C)c4=O)c3C)c2Cl)cc2c1[C@@H](N(C[C@@H]1CCC(=O)N1)C(=O)OCc1oc(=O)oc1C)CC2 [Compound F-1]

row,SMILES,IC50 [nM]
1,CCOC(=O)N(C[C@@H]1CCC(=O)N1)[C@H]1CCc2cc(-c3cccc(-c4cccc(NC(=O)c5cn(C)c(=O)n(C)c5=O)c4C)c3Cl)nc(OC)c21 [Compound E-1],≤ 10

# System: PD-1/PD-L1 interaction
# Assay: PD-1/PD-L1 NFAT Reporter Assay (co-culture of Jurkat T cells overexpressing PD-1 and PD-L1 expressing CHO cells)
# Type: cell-based
# Settings: Homo sapiens, Jurkat, 6 h, co-culture 6 hrs at 37° C., NFAT-mediated luciferase activity
# Protocol: Blocking the PD-1/PD-L1 interaction will release the inhibitory signal and results in TCR signaling and NFAT-mediated luciferase activity.
# CHO cells expressing surface-bound anti-CD3 antibodies and PD-L1 were first seeded overnight and treated with the compounds. Jurkat cells overexpressing PD-1 and a luciferase construct under NFAT promoter were then immediately seeded on the monolayer of CHO cells. The co-culture was then incubated for 6 hrs at 37° C. Luciferase activity was assessed by adding the ONE-Glo reagent and measuring luminescence with a plate reader. EC50 values were determined from the fit of the dose-response curves.
row,EC50 [nM],SMILES
1,≤ 10,"COc1nc(-c2cccc(-c3cccc(NC(=O)c4cn(C)c(=O)n(C)c4=O)c3Cl)c2Cl)cc2c1[C@@H](NC[C@@H]1CCC(=O)N1)CC2 (single isomer, unassigned) [Compound A-1]"
2,10 to 100,"COc1nc(-c2cccc(-c3cccc(NC(=O)c4cn(C)c(=O)n(C)c4=O)c3C)c2Cl)cc2c1[C@@H](NC[C@@H]1CCC(=O)N1)CO2 (single isomer, unassigned) [Compound A-19]"
3,10 to 100,"COc1nc(-c2cccc(-c3cccc(NC(=O)c4cn(C)c(=O)n(C)c4=O)c3Cl)c2Cl)cc2c1[C@@H](N1CC3(CCC(=O)N3)C1)CC2 (single isomer, unassigned) [Compound A-20]"
4,100 to 1000,"COc1nc(-c2cccc(-c3cccc(NC(=O)c4cn(C)c(=O)n(C)c4=O)c3Cl)c2Cl)cc2c1[C@@H](N1CC3(CCNC3=O)C1)CC2 (single isomer, unassigned) [Compound A-21]"
5,≤ 10,"COc1nc(-c2cccc(-c3cccc(NC(=O)c4cn(C)c(=O)n(C)c4=O)c3Cl)c2Cl)cc2c1[C@H](N1CC3(CCNC3=O)C1)CC2 (single isomer, unassigned) [Compound A-22]"
6,≤ 10,"COc1nc(-c2cccc(-c3cccc(NC(=O)c4cn(C)c(=O)n(C)c4=O)c3Cl)c2Cl)cc2c1[C@H](N1CC3(CN(C(C)=O)C3)C1)CC2 (single isomer, unassigned) [Compound A-23]"
7,≤ 10,"COc1nc(-c2cccc(-c3cccc(NC(=O)c4nn(C)c(=O)n(C)c4=O)c3Cl)c2Cl)cc2c1[C@H](N1CC3(CN(C(C)=O)C3)C1)CC2 (single isomer, unassigned) [Compound A-71]"
8,10 to 100,"COc1nc(-c2cccc(-c3cccc(NC(=O)c4cn(C)c(=O)n(C)c4=O)c3Cl)c2C#N)cc2c1[C@@H](N[C@@H]1CCOC[C@@H]1O)CC2 (single isomer, unassigned) [Compound A-73]"
9,≤ 10,"COc1nc(-c2cccc(-c3cccc(NC(=O)c4nn(C)c(=O)n(C)c4=O)c3Cl)c2Cl)cc2c1[C@@H](N[C@@H]1CCOC[C@@H]1O)CC2 (single isomer, unassigned) [Compound A-76]"
10,≤ 10,"COc1nc(-c2cccc(-c3cccc(NC(=O)c4nn(C)c(=O)n(C)c4=O)c3C)c2Cl)cc2c1[C@@H](N[C@@H]1CCOC[C@@H]1O)CC2 (single isomer, unassigned) [Compound A-77]"
11,> 5000,"COc1nc(-c2cccc(-c3cccc(NC(=O)c4cn(C)c(=O)n(C)c4=O)c3C)c2Cl)cc2c1[C@@H](NC[C@@H]1CCC(=O)N1)C(C)(C)C2 (single isomer, unassigned) [Compound A-123]"
12,1000 to 10000,"COc1nc(-c2cccc(-c3cccc(NC(=O)c4cn(C)c(=O)n(C)c4=O)c3C)c2Cl)cc2c1[C@H](NC[C@@H]1CCC(=O)N1)C(C)(C)C2 (single isomer, unassigned) [Compound A-124]"
13,≤ 10,"COc1nc(-c2cccc(-c3cccc(NC(=O)c4cn(C)c(=O)n(C)c4=O)c3C)c2Cl)cc2c1[C@H](NC[C@@H]1CNC(=O)C1)CC2 (single isomer, unassigned) [Compound A-138]"
14,≤ 10,"COc1nc(-c2cccc(-c3cccc(NC(=O)c4cn(C)c(=O)n(C)c4=O)c3C)c2Cl)cc2c1[C@@H](N1CC3(CCC(=O)N3)C1)CC2 (single isomer, unassigned) [Compound A-139]"
15,10 to 100,COc1nc(-c2cccc(-c3cccc(NC(=O)c4cn(C)c(=O)n(C)c4=O)c3F)c2F)cc2c1[C@@H](NC[C@@H]1CCC(=O)N1)CC2 [Compound A-9]
16,100 to 1000,COc1cc(-c2cccc(-c3cccc(NC(=O)c4cn(C)c(=O)n(C)c4=O)c3Cl)c2Cl)cc2c1CC(NC[C@@H]1CCC(=O)N1)C2 (some centres unmarked) [Compound A-48]
17,10 to 100,COc1nc(-c2cccc(-c3cccc(NC(=O)c4cn(C)c(=O)n(C)c4=O)c3Cl)c2C#N)cc2c1[C@@H](NC[C@@H]1CCC(=O)N1)CC2 [Compound A-50]
18,10 to 100,COc1nc(-c2ccc(F)c(-c3cccc(NC(=O)c4cn(C)c(=O)n(C)c4=O)c3C)c2F)cc2c1[C@H](N1CC(O)C1)CC2 [Compound A-81]
19,10 to 100,COc1nc(-c2cccc(-c3cccc(NC(=O)c4cn(C)c(=O)n(C)c4=O)c3Cl)c2Cl)cc2c1C(N[C@H]1CCOC[C@@H]1O)CC2 (stereo partly drawn) [Compound D-8a]
20,10 to 100,COc1nc(-c2cccc(-c3cccc(NC(=O)c4cn(C)c(=O)n(C)c4=O)c3C)c2Cl)cc2c1C(NCC(=O)O)CC2 [Compound D-12]
21,10 to 100,COc1nc(-c2cccc(-c3cccc(NC(=O)c4cn(C)c(=O)n(C)c4=O)c3C)c2Cl)cc2c1C(NCC(=O)N1CCCC1)CC2 [Compound D-13]
22,≤ 10,COc1nc(-c2cccc(-c3cccc(NC(=O)c4cn(C)c(=O)n(C)c4=O)c3Cl)c2Cl)cc2c1C(N1CC3(CNC(=O)C3)C1)CC2 [Compound D-14]
23,≤ 10,COc1nc(-c2cccc(-c3cccc(NC(=O)c4cn(C)c(=O)n(C)c4=O)c3C)c2Cl)cc2c1[C@@H](N(C)C[C@@H]1CCC(=O)N1)CC2 [Compound I-1]

# Same assay, conditions: co-culture 6 hrs at 37° C., NFAT-mediated luciferase activity
row,EC50 [nM],SMILES
1,10 to 100,COc1nc(-c2ccc(F)c(-c3cccc(NC(=O)c4cn(C)c(=O)n(C)c4=O)c3C)c2F)cc2c1[C@H](N1CC(O)C1)CC2 [Compound A-82]
